# Measured values taken from PMC6364417, “Kinase inhibitor library screening identifies synergistic drug combinations effective in sensitive and resistant melanoma cells” (Journal of Experimental & Clinical Cancer Research : CR, 2019).
# Key:
# Test in all cases: Kinase inhibitor library screening, PrestoBlue cell viability, 1 or 10 μM, 72 h
# [1] = system: IGR37-XP cells (Vemurafenib-resistant); conditions: IGR37 XP
# [2] = system: 501Mel-XP cells (Vemurafenib-resistant); conditions: 501Mel XP
# [3] = system: A375-GP cells (Dabrafenib-resistant); conditions: A375 GP
# [4] = system: A375-XP cells (Vemurafenib-resistant); conditions: A375 XP
# [5] = system: 501Mel cells (parental); conditions: 501Mel Parental
# In short: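 Parental cells and Vemurafenib-resistant (XP) or Dabrafenib-resistant (GP) derivatives were treated with library kinase inhibitors at 1 and 10 μM for 72 h. Viability measured by PrestoBlue and expressed as % of untreated cells, at least in duplicate.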
# [6] = system: IGR37-GP cells (Dabrafenib-resistant); conditions: IGR37 GP
# [7] = system: A375 cells (parental); conditions: A375 Parental
# [8] = system: IGR37 cells (parental); conditions: IGR37 Parental
# [9] = system: 501Mel-GP cells (Dabrafenib-resistant); conditions: 501Mel GP
compound,measurement,setting,value
COc1cc(Nc2ncc3c(n2)-c2ccc(Cl)cc2C(c2c(F)cccc2OC)=NC3)ccc1C(=O)O [MLN8237 (Alisertib)],cell viability (kinase inhibitor library screening),"[1]; 1μΜ, 72 h",86.2%
same,cell viability (kinase inhibitor library screening),"[1]; 10μΜ, 72 h",31.0%
same,cell viability (kinase inhibitor library screening),"[2]; 1μΜ, 72 h",67.2%
same,cell viability (kinase inhibitor library screening),"[2]; 10μΜ, 72 h",49.0%
same,cell viability (kinase inhibitor library screening),"[3]; 1μΜ, 72 h",42.7%
same,cell viability (kinase inhibitor library screening),"[3]; 10μΜ, 72 h",41.7%
same,cell viability (kinase inhibitor library screening),"[4]; 1μΜ, 72 h",51.0%
same,cell viability (kinase inhibitor library screening),"[4]; 10μΜ, 72 h",50.5%
same,cell viability (kinase inhibitor library screening),"[5]; 1μΜ, 72 h",82.2%
same,cell viability (kinase inhibitor library screening),"[5]; 10μΜ, 72 h",73.9%
same,cell viability (kinase inhibitor library screening),"[6]; 1μΜ, 72 h",89.7%
same,cell viability (kinase inhibitor library screening),"[6]; 10μΜ, 72 h",56.0%
same,cell viability (kinase inhibitor library screening),"[7]; 10μΜ, 72 h",40.1%
same,cell viability (kinase inhibitor library screening),"[7]; 1μΜ, 72 h",43.3%
same,cell viability (kinase inhibitor library screening),"[8]; 1μΜ, 72 h",70.3%
same,cell viability (kinase inhibitor library screening),"[8]; 10μΜ, 72 h",54.5%
same,cell viability (kinase inhibitor library screening),"[9]; 1μΜ, 72 h",82.8%
same,cell viability (kinase inhibitor library screening),"[9]; 10μΜ, 72 h",52.7%
Cc1ccc(NC(=O)c2ccc(CN3CCN(C)CC3)cc2)cc1Nc1nc(-c2cccnc2)cs1 [Masitinib (AB1010)],cell viability (kinase inhibitor library screening),"[1]; 1μΜ, 72 h",103.2%
same,cell viability (kinase inhibitor library screening),"[1]; 10μΜ, 72 h",49.1%
same,cell viability (kinase inhibitor library screening),"[2]; 1μΜ, 72 h",94.5%
same,cell viability (kinase inhibitor library screening),"[2]; 10μΜ, 72 h",20.4%
same,cell viability (kinase inhibitor library screening),"[3]; 1μΜ, 72 h",98.6%
same,cell viability (kinase inhibitor library screening),"[3]; 10μΜ, 72 h",85.2%
same,cell viability (kinase inhibitor library screening),"[4]; 1μΜ, 72 h",105.3%
same,cell viability (kinase inhibitor library screening),"[4]; 10μΜ, 72 h",94.5%
same,cell viability (kinase inhibitor library screening),"[5]; 10μΜ, 72 h",88.8%
same,cell viability (kinase inhibitor library screening),"[6]; 10μΜ, 72 h",77.4%
same,cell viability (kinase inhibitor library screening),"[7]; 10μΜ, 72 h",87.9%
same,cell viability (kinase inhibitor library screening),"[8]; 1μΜ, 72 h",98.6%
same,cell viability (kinase inhibitor library screening),"[8]; 10μΜ, 72 h",92.0%
same,cell viability (kinase inhibitor library screening),"[9]; 1μΜ, 72 h",103.1%
same,cell viability (kinase inhibitor library screening),"[9]; 10μΜ, 72 h",85.2%
CC1(C)CNc2cc(NC(=O)c3cccnc3NCc3ccncc3)ccc21 [Motesanib Diphosphate],cell viability (kinase inhibitor library screening),"[1]; 10μΜ, in %",78.2
same,cell viability (kinase inhibitor library screening),"[2]; 1μΜ, in %",91.0
same,cell viability (kinase inhibitor library screening),"[2]; 10μΜ, in %",71.5
same,cell viability (kinase inhibitor library screening),"[3]; 1μΜ, in %",99.4
same,cell viability (kinase inhibitor library screening),"[3]; 10μΜ, in %",89.9
same,cell viability (kinase inhibitor library screening),"[4]; 1μΜ, in %",109.8
same,cell viability (kinase inhibitor library screening),"[4]; 10μΜ, in %",97.0
same,cell viability (kinase inhibitor library screening),"[5]; 1μΜ, in %",97.3
same,cell viability (kinase inhibitor library screening),"[5]; 10μΜ, in %",94.6
same,cell viability (kinase inhibitor library screening),"[6]; 1μΜ, in %",85.5
same,cell viability (kinase inhibitor library screening),"[6]; 10μΜ, in %",85.5
same,cell viability (kinase inhibitor library screening),"[7]; 1μΜ, in %",105.3
same,cell viability (kinase inhibitor library screening),"[7]; 10μΜ, in %",89.5
same,cell viability (kinase inhibitor library screening),"[8]; 1μΜ, in %",97.7
same,cell viability (kinase inhibitor library screening),"[8]; 10μΜ, in %",97.0
same,cell viability (kinase inhibitor library screening),"[9]; 1μΜ, in %",98.5
same,cell viability (kinase inhibitor library screening),"[9]; 10μΜ, in %",82.7
O=c1cc(N2CCOCC2)oc2c(-c3cccc4c3sc3ccccc34)cccc12 [NU7441(KU-57788)],"cell viability, IGR37 XP, 10μΜ","[1]; 10μΜ, 72 h",20.1%
same,"cell viability, IGR37 XP, 1μΜ","[1]; 1μΜ, 72 h, in %",99.7
same,"cell viability, 501Mel XP, 10μΜ","[2]; 10μΜ, 72 h, in %",10.9
same,"cell viability, A375 GP, 1μΜ","[3]; 1μΜ, 72 h, in %",92.7
same,"cell viability, A375 GP, 10μΜ","[3]; 10μΜ, 72 h, in %",47.4
same,"cell viability, A375 XP, 1μΜ","[4]; 1μΜ, 72 h, in %",98.6
same,"cell viability, A375 XP, 10μΜ","[4]; 10μΜ, 72 h, in %",55.7
same,"cell viability, 501Mel Parental, 10μΜ","[5]; 10μΜ, 72 h, in %",61.0
same,"cell viability, IGR37 GP, 10μΜ","[6]; 10μΜ, 72 h",49.3%
same,"cell viability, IGR37 GP, 1μΜ","[6]; 1μΜ, 72 h, in %",92.2
same,"cell viability, A375 Parental, 1μΜ","[7]; 1μΜ, 72 h, in %",98.8
same,"cell viability, A375 Parental, 10μΜ","[7]; 10μΜ, 72 h, in %",52.7
same,"cell viability, IGR37 Parental, 1μΜ","[8]; 1μΜ, 72 h, in %",96.8
same,"cell viability, IGR37 Parental, 10μΜ","[8]; 10μΜ, 72 h, in %",98.9
same,"cell viability, 501Mel GP, 1μΜ","[9]; 1μΜ, 72 h, in %",93.7
same,"cell viability, 501Mel GP, 10μΜ","[9]; 10μΜ, 72 h, in %",32.9
Nc1ncnc2c1c(-c1cccc(OCc3ccccc3)c1)cn2C1CC(CN2CCCC2)C1 (stereo not drawn) [NVP-ADW742],"cell viability, IGR37 XP, 10μΜ","[1]; 10μΜ, 72 h",1.2%
same,"cell viability, IGR37 XP, 1μΜ","[1]; 1μΜ, 72 h, in %",78.5
same,"cell viability, 501Mel XP, 1μΜ","[2]; 1μΜ, 72 h, in %",82.0
same,"cell viability, 501Mel XP, 10μΜ","[2]; 10μΜ, 72 h, in %",-0.346
same,"cell viability, A375 GP, 1μΜ","[3]; 1μΜ, 72 h, in %",57.9
same,"cell viability, A375 GP, 10μΜ","[3]; 10μΜ, 72 h, in %",20.2
same,"cell viability, A375 XP, 1μΜ","[4]; 1μΜ, 72 h, in %",90.5
same,"cell viability, A375 XP, 10μΜ","[4]; 10μΜ, 72 h, in %",13.9
same,"cell viability, 501Mel Parental, 1μΜ","[5]; 1μΜ, 72 h, in %",80.8
same,"cell viability, 501Mel Parental, 10μΜ","[5]; 10μΜ, 72 h, in %",0.529
same,"cell viability, IGR37 GP, 10μΜ","[6]; 10μΜ, 72 h",1.6%
same,"cell viability, IGR37 GP, 1μΜ","[6]; 1μΜ, 72 h, in %",83.7
same,"cell viability, A375 Parental, 1μΜ","[7]; 1μΜ, 72 h, in %",89.6
same,"cell viability, A375 Parental, 10μΜ","[7]; 10μΜ, 72 h, in %",25.2
same,"cell viability, IGR37 Parental, 1μΜ","[8]; 1μΜ, 72 h, in %",110.2
same,"cell viability, IGR37 Parental, 10μΜ","[8]; 10μΜ, 72 h, in %",0.537
same,"cell viability, 501Mel GP, 1μΜ","[9]; 1μΜ, 72 h, in %",91.7
same,"cell viability, 501Mel GP, 10μΜ","[9]; 10μΜ, 72 h, in %",-0.2
COc1ccc(-c2ccc3ncc4c(c3c2)n(-c2ccc(N3CCNCC3)c(C(F)(F)F)c2)c(=O)n4C)cn1 [NVP-BGT226],"Cell viability in kinase inhibitor library screening, IGR37 XP, 10μΜ","[1]; 10μΜ, 72 h",1.4%
same,"Cell viability in kinase inhibitor library screening, IGR37 XP, 1μΜ","[1]; 1μΜ, 72 h, in %",2.5
same,"Cell viability in kinase inhibitor library screening, 501Mel XP, 1μΜ","[2]; 1μΜ, 72 h, in %",1.5
same,"Cell viability in kinase inhibitor library screening, 501Mel XP, 10μΜ","[2]; 10μΜ, 72 h, in %",1.1
same,"Cell viability in kinase inhibitor library screening, A375 GP, 1μΜ","[3]; 1μΜ, 72 h",7.1
same,"Cell viability in kinase inhibitor library screening, A375 GP, 10μΜ","[3]; 10μΜ, 72 h",0.9
same,"Cell viability in kinase inhibitor library screening, A375 XP, 1μΜ","[4]; 1μΜ, 72 h",7.2
same,"Cell viability in kinase inhibitor library screening, A375 XP, 10μΜ","[4]; 10μΜ, 72 h",1.0
same,"Cell viability in kinase inhibitor library screening, 501Mel Parental, 1μΜ","[5]; 1μΜ, 72 h, in %",1.2
same,"Cell viability in kinase inhibitor library screening, 501Mel Parental, 10μΜ","[5]; 10μΜ, 72 h, in %",1.1
same,"Cell viability in kinase inhibitor library screening, IGR37 GP, 10μΜ","[6]; 10μΜ, 72 h",2.6%
same,"Cell viability in kinase inhibitor library screening, IGR37 GP, 1μΜ","[6]; 1μΜ, 72 h, in %",2.9
same,"Cell viability in kinase inhibitor library screening, A375 Parental, 10μΜ","[7]; 10μΜ, 72 h",0.952
same,"Cell viability in kinase inhibitor library screening, A375 Parental, 1μΜ","[7]; 1μΜ, 72 h",9.1
same,"Cell viability in kinase inhibitor library screening, IGR37 Parental, 1μΜ","[8]; 1μΜ, 72 h, in %",2.3
same,"Cell viability in kinase inhibitor library screening, IGR37 Parental, 10μΜ","[8]; 10μΜ, 72 h, in %",-1.8
same,"Cell viability in kinase inhibitor library screening, 501Mel GP, 1μΜ","[9]; 1μΜ, 72 h, in %",0.9
same,"Cell viability in kinase inhibitor library screening, 501Mel GP, 10μΜ","[9]; 10μΜ, 72 h, in %",0.145
